{"source": "paper PMC3688238", "about": "“The effect of different dosing regimens of motesanib on the gallbladder: a randomized phase 1b study in patients with advanced solid tumors” (BMC Cancer, 2013)", "origin": "cited, not measured here", "system": "gallbladder", "conditions": "cited from earlier work", "note": "Like-named read-outs stand apart in the source and are kept apart here."}
{"smiles": "CNC(=O)c1cc(Oc2ccc(NC(=O)Nc3ccc(Cl)c(C(F)(F)F)c3)cc2)ccn1", "note": "[Sorafenib]", "values": [{"measurement": "Adverse events reported", "setting": "case report, ref Sanda et al. [20]", "result": "Right upper abdominal pain, gallbladder edema, acute acalculous cholecystitis"}, {"measurement": "Adverse events reported", "setting": "ref Nexavar European public assessment report [26]", "result": "Cholecystitis, cholangitis"}, {"measurement": "Adverse events reported", "setting": "ref Nexavar US prescribing information [25]", "result": "Cholecystitis, cholangitis"}]}
{"smiles": "Cc1ccc(NC(=O)c2ccc(CN3CCN(C)CC3)cc2)cc1Nc1nccc(-c2cccnc2)n1", "note": "[Imatinib]", "values": [{"measurement": "Adverse events reported", "setting": "case report, ref Breccia et al. [37]", "result": "Gallstones, gallbladder wall thickening, abdominal pain"}, {"measurement": "Adverse events reported", "setting": "phase 1 study, ref Grant et al. [24]", "result": "Cholecystitis"}, {"measurement": "Adverse events reported", "setting": "single-arm study, ref Yeh et al. [23]", "result": "Gallstones"}]}
{"smiles": "CCN(CC)CCNC(=O)c1c(C)[nH]c(/C=C2\\C(=O)Nc3ccc(F)cc32)c1C", "note": "[Sunitinib]", "values": [{"measurement": "Adverse events reported", "setting": "case report, ref De Lima Lopes, Jr., et al. [18]", "result": "Acute emphysematous cholecystitis, right upper abdominal pain, gallbladder distension"}, {"measurement": "Adverse events reported", "setting": "case report, ref Gomez-Abuin et al. [19]", "result": "Acute acalculous cholecystitis, right upper abdominal pain, gallbladder wall thickening"}, {"measurement": "Adverse events reported", "setting": "single-arm study, ref Motzer et al. [17]", "result": "Acute cholecystitis"}]}
{"smiles": "COc1cc2c(Oc3ccc4[nH]c(C)cc4c3F)ncnc2cc1OCCCN1CCCC1", "note": "[Cediranib]", "values": [{"measurement": "Adverse events reported", "setting": "phase 1 study, ref Laurie et al. [21]", "result": "Acute cholecystitis"}, {"measurement": "Adverse events reported", "setting": "phase 2 study, ref Batchelor et al. [22]", "result": "Gallbladder obstruction, abdominal pain"}]}
